# In ChEMBL document CHEMBL1137615, “Discovery of orally efficacious tetracyclic metabotropic glutamate receptor 1 (mGluR1) antagonists for the treatment of chronic pain” (J Med Chem, 2007):
# Legend:
# [1] = Cmax in rat at 10 mg/kg, po by CARRS; type: ADME, organism-based; set-up: dose 10 mg/kg, route oral; conditions: in vivo
# [2] = biological target: Metabotropic glutamate receptor 1 (Rattus norvegicus, UniProt P23385); assay: Displacement of [3H]9-Dimethylamino-3-(4-methoxy-phenyl)-3H-pyrido[3',2':4,5]thieno[3,2-d]pyrimidin-4-one from mGluR1 in rat cerebellum membrane; type: cell membranes
# [3] = biological target: T1, Metabotropic glutamate receptor 5 (Homo sapiens, UniProt P41594); assay: Antagonist activity at human mGluR5b expressed in HEK293 cells assessed by measuring intracellular calcium by FLIPR assay; type: functional, cell-based
# Target sequence in this assay (P41594 whole entry): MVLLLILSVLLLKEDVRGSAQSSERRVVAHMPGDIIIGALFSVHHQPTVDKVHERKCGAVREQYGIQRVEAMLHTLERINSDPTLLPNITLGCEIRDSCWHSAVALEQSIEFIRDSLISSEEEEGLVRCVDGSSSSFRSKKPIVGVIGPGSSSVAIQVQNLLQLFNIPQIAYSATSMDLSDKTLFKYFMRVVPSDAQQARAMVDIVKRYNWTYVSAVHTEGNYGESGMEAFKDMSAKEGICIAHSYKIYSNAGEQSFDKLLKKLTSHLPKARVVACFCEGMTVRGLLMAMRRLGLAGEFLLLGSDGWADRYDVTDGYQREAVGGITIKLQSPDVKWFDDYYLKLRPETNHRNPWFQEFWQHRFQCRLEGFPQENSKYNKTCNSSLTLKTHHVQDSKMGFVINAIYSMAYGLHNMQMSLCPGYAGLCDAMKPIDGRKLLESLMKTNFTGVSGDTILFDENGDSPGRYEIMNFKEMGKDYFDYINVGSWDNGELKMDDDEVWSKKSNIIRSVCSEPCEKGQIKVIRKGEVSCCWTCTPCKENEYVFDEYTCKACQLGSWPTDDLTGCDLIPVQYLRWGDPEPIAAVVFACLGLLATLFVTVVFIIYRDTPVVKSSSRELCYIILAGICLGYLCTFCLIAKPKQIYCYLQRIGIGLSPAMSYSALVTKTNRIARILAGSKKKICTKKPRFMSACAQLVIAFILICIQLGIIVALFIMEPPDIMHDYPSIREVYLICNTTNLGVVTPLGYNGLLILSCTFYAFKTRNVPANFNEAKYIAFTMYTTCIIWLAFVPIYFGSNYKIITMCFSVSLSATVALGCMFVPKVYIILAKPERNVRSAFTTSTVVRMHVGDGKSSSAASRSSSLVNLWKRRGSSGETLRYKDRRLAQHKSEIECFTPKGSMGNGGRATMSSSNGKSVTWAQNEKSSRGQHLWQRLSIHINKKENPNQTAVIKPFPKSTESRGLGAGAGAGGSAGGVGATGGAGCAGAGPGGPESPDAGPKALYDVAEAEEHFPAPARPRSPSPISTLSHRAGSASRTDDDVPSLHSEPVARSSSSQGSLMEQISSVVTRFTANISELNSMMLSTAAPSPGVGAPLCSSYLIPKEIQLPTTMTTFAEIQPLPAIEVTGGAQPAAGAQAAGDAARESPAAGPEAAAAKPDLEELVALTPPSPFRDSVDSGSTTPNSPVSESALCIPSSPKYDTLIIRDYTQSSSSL
# Rattus norvegicus [4] = assay: Inhibition of neuropathic pain in SNL rat model at 10 mg/kg, po; type: functional
# [5] = AUC (0 to 6 hrs) in rat at 10 mg/kg, po by CARRS; type: ADME, organism-based; set-up: time < 6 hr, dose 10 mg/kg, route oral; conditions: plasma
# [6] = Tmax in rat at 10 mg/kg, po by CARRS; type: ADME, organism-based; set-up: dose 10 mg/kg, route oral; conditions: in vivo
# Rattus norvegicus [7] = assay: Effect on neuropathic pain in SNL rat model assessed as paw withdrawal threshold at 10 mg/kg, po; type: functional
# [8] = biological target: Metabotropic glutamate receptor 1 (Homo sapiens, UniProt Q13255); assay: Antagonist activity at human mGluR1a expressed in CHO cells assessed by measuring intracellular calcium by FLIPR assay; type: functional, cell-based
# [9] = biological target: T1, Metabotropic glutamate receptor 5; assay: Displacement of radioligand from human mGluR5b expressed in HEK293 cells at 1 uM; type: cell-based
# Target sequence in this assay (P41594 21-1212 limits assumed): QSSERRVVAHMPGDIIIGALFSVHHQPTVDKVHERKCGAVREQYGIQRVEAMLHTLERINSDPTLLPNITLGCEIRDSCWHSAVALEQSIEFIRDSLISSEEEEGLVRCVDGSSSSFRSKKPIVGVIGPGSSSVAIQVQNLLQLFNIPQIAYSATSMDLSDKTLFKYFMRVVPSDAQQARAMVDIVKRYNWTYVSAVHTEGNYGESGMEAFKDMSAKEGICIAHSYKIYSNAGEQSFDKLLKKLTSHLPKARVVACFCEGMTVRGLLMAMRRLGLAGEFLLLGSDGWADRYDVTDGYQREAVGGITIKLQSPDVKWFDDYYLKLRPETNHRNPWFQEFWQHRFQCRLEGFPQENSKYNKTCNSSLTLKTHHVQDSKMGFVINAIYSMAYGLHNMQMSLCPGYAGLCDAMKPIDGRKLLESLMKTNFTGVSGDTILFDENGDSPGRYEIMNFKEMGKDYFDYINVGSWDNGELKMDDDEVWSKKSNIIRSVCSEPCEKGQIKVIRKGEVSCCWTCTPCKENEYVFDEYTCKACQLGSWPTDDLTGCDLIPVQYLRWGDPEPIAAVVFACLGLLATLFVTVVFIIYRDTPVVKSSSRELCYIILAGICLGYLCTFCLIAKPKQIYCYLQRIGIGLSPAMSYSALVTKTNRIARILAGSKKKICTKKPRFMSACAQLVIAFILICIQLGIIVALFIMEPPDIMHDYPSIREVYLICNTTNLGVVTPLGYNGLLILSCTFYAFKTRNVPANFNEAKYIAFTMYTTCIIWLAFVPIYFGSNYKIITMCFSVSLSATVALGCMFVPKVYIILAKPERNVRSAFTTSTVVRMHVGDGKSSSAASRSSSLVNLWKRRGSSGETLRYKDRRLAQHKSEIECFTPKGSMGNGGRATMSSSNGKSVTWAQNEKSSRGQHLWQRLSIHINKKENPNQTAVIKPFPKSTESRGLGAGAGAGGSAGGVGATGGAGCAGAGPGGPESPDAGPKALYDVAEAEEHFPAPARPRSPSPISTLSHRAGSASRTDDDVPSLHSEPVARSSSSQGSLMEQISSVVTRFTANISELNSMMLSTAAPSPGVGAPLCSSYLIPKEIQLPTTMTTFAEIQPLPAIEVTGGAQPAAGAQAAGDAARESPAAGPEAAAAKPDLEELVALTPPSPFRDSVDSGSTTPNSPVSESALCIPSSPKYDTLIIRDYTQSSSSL
# Rattus norvegicus [10] = assay: Effect on neuropathic pain in orally dosed SNL rat model; type: functional; conditions: po
# Chain of Metabotropic glutamate receptor 1 (Homo sapiens, UniProt Q13255) (Q13255 whole entry): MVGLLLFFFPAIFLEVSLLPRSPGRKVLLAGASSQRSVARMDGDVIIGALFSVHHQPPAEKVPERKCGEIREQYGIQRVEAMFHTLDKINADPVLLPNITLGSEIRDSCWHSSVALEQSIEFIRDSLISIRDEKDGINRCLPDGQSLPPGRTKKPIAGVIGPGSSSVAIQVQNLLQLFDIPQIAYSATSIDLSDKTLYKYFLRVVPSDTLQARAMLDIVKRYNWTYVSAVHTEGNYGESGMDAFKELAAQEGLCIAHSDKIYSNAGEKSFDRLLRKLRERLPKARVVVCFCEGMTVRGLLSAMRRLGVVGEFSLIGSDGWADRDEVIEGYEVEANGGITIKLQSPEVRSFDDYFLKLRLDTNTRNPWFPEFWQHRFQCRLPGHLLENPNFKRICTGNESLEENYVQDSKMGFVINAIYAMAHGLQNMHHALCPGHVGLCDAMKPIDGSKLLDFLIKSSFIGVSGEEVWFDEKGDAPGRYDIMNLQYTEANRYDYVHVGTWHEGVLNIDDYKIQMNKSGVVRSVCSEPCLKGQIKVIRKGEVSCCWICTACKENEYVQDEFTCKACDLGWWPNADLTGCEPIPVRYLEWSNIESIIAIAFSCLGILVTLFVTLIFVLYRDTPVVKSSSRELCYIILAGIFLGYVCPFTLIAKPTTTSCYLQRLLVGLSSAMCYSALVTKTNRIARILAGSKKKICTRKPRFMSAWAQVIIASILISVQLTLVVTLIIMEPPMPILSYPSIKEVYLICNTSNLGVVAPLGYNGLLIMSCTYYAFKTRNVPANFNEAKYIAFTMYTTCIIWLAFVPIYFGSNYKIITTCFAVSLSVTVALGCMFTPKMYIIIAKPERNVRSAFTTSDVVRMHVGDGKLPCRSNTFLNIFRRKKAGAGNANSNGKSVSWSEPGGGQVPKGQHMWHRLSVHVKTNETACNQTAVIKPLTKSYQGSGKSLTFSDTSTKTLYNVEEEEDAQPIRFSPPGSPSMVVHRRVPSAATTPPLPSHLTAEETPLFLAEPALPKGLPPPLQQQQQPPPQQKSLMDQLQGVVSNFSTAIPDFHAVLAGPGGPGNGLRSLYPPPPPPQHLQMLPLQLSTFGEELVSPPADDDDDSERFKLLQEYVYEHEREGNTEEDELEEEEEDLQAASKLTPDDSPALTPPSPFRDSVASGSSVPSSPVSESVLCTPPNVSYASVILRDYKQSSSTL
# Chain of Metabotropic glutamate receptor 1 (Rattus norvegicus, UniProt P23385) (P23385 whole entry): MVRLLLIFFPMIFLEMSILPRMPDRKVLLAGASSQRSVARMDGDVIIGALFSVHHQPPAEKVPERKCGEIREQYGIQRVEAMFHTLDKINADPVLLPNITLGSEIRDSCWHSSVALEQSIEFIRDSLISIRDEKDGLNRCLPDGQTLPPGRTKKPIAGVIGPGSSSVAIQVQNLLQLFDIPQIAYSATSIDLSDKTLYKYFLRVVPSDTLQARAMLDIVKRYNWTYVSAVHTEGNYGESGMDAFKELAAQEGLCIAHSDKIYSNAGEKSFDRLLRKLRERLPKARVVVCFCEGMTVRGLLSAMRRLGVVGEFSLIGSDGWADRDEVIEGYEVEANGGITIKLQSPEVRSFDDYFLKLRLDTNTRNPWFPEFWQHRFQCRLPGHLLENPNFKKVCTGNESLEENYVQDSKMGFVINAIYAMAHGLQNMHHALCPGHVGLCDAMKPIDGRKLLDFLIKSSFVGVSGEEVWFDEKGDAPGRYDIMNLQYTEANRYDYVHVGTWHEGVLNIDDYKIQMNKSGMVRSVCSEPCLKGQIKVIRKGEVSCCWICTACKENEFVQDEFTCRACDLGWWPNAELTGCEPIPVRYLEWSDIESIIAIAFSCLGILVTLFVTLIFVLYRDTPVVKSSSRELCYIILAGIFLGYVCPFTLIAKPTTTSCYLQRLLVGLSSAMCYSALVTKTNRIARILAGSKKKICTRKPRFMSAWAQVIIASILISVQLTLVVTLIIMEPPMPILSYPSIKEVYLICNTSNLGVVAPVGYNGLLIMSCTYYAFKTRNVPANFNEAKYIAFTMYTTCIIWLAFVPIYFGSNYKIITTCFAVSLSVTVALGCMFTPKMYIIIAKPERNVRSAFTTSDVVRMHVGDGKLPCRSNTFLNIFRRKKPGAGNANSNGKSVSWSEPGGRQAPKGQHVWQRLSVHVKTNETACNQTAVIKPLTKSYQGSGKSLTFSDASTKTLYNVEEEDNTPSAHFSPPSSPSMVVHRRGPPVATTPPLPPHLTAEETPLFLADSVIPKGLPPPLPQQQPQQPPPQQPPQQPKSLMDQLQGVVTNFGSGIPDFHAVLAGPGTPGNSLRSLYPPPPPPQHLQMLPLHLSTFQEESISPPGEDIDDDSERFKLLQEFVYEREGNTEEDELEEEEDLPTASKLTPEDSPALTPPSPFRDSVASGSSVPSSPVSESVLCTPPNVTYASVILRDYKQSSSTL
SMILES,Cmax [1] [nM],Ki [2] [nM],IC50 [3] [nM],MPE (Rattus norvegicus [4]) [%],AUC(0-t) at 6 h [5] [µM·h],Tmax [6] [h],Activity (Rattus norvegicus [7]) [g],IC50 [8] [nM],Activity [9] [%],ED50 (Rattus norvegicus [10]) [mg/kg]
C[C@@H]1CNc2c(cnc3sc4c(=O)n(-c5ccc(Cl)cc5)cnc4c23)O1,1420,0.2,> 1000,68,5.19,0.5,10.9,,,
Cc1ccc(-n2cnc3c(sc4ncc5cc[nH]c5c43)c2=O)cc1,71,16.9,> 1000,,0.035,0.5,,,,
C[C@@H]1COc2cnc3sc4c(=O)n(-c5ccc(Cl)cc5)cnc4c3c2N1,,9.1,> 1000,,,,,24.4,,
CSc1nc2c(cnc3sc4c(=O)n(-c5ccc(C)cc5)cnc4c32)s1,,788,,,,,,636,-2,
COc1ccc(-n2cnc3c(sc4ncc5c(c43)NC[C@@H](C)O5)c2=O)cc1,,0.3,> 1000,,,,,2.4,,
Cc1ccc(-n2cnc3c(sc4ncc5sc(=O)[nH]c5c43)c2=O)cc1,,1000,,,,,,446,-8,
Cc1ccc(-n2cnc3c(sc4ncc5c(c43)NC[C@@H](C)O5)c2=O)cc1,,0.6,609,,,,,,,
Cn1cnc2cnc3sc4c(=O)n(-c5ccc(Cl)cc5)cnc4c3c21,,104,,,,,,,0.15,
Cc1ccc(-n2cnc3c(sc4ncc5cn[nH]c5c43)c2=O)cc1,,17.8,,,,,,16.8,5,
C[C@H]1COc2cnc3sc4c(=O)n(-c5ccc(Cl)cc5)cnc4c3c2N1,,0.5,> 1000,,,,,,,
COc1ccc(-n2cnc3c(sc4ncc5cc[nH]c5c43)c2=O)cc1,394,28.6,> 10000,39,1.32,2,6.6,,,
Cc1ccc(-n2cnc3c(sc4ncc5c(c43)NCCO5)c2=O)cc1,70,0.5,702,,0.077,1,,,,
CNc1c(Br)cnc2sc3c(=O)n(-c4ccc(Cl)cc4)cnc3c12,,,,,,,,5.9,,
Cc1ccc(-n2cnc3c(sc4ncc5sc(=S)[nH]c5c43)c2=O)cc1,,1000,,,,,,541,-10,
C[C@H]1CNc2c(cnc3sc4c(=O)n(-c5ccc(Cl)cc5)cnc4c23)O1,2050,1.5,> 1000,44,8.43,2,7.7,,,
O=c1c2sc3ncc4cc[nH]c4c3c2ncn1-c1ccc(Cl)cc1,37,2.4,,,0.018,0.5,,,1.7,
O=c1c2sc3ncc4nc[nH]c4c3c2ncn1-c1ccc(Cl)cc1,,10.8,,,,,,,-1.7,
COc1ccc(-n2cnc3c(sc4nccc(N(C)C)c43)c2=O)cc1,564,7.9,10000,87,1.93,0.5,13.2,9.5,,
COc1ccc(-n2cnc3c(sc4ncc5c(c43)NCCO5)c2=O)cc1,467,1,> 1000,50,1.56,2,8.5,,,8
O=c1c2sc3ncc4c(c3c2ncn1-c1ccc(Cl)cc1)NCCO4,198,0.4,> 1000,73,0.366,1,11.8,,,5.1
O=c1c2sc3ncc4cn[nH]c4c3c2ncn1-c1ccc(Cl)cc1,,19.6,,,,,,,-12,
